Results on eight compounds are retold here after patent US20120095062A1, “TRICYCLIC COMPOUNDS, COMPOSITIONS, AND METHODS” (Pfizer Inc., priority 2007, published 2012).

For orientation: IC50 means the concentration needed to halve the response being measured. By inhibition is commonly meant the change of the read-out against control, counted positive when it falls. The term ED50 denotes the dose that gives a 50% effect, or the effect in half of the subjects.

Read-outs that look alike come from different tables or passages of the source.

In data set [1] the test system is IL-6, Human A549 lung epithelial cells. Description: IL-6 inhibition in IL-1β-stimulated A549 cells. The following applies: for inhibition: A549, A549 cells, Prednisolone (1 μM) = 100% inhibition control. Type of data set: cell-based. As to the method:
Human A549 lung epithelial cells (American Type Culture Collection, Rockville, Md.) were cultured in Kaighn's F-12K medium with penicillin-streptomycin (10 U/mL) and 10% heat-inactivated fetal bovine serum (all from Invitrogen, Grand Island, N.Y.). A549 cells were plated at a density of 30,000 cells/well in 96-well plates and incubated overnight at 37° C. and with 5% CO2. The cells were serum-starved by replacing the growth medium with serum-free Kaighn's F-12K medium with penicillin-streptomycin (10 U/mL) and, again, incubating overnight at 37° C. and with 5% CO2. On the third day, the medium was replaced with fresh serum-free medium and the cells were incubated with or without compound (vehicle was DMSO at 0.1% maximum concentration) for approximately 1 hour and then stimulated with 1 ng/mL recombinant human IL-1β (R&D Systems, Minneapolis, Minn.) for 20 hours at 37° C. and with 5% CO2. Cell supernatants were collected for determination of IL-6 levels using MSD (Meso Scale Discovery, Gaithersburg, Md.) 96-well Single Spot plates as per the manufacturer's instructions. Plates were read with an MSD Sector Imager 6000. […] Vehicle was used to define the 0% inhibition control. Percent inhibition for each compound concentration, relative to these controls, was calculated using Excel (Microsoft, Redmond, Wash.). IC50 values were generated using GraFit 5.0 data analysis software (Erithacus Software Ltd., Surrey, UK).

For data set [2], the system named is Mouse Collagen-induced arthritis. In words: Therapeutic mouse collagen-induced arthritis (mCIA) model. The class given is in vivo. The following applies: mice, dosing day 34 through day 49, read-out: Therapeutic mCIA (ED50 dose). From the text:
Mouse Collagen-induced arthritis is a commonly used chronic, preclinical model of rheumatoid arthritis in which joint swelling and bone destruction occur following immunization with type II collagen. Reduction of disease incidence and severity has been shown previously to be predictive of disease-modification and signs and symptoms mitigation, respectively, in a clinical setting.
In the therapeutic mCIA model, induction of disease incidence and severity was synchronized via LPS stimulation. Male […] mice were immunized with 100 ug of bovine type II collagen (bCII) on day 0. All mice received an intraperitoneal injection of 20 μg of LPS on day 28 and disease was allowed to develop through day 34. At day 34, all mice had disease (incidence=100%) with an average severity score of seven. Dosing of compounds was initiated in the therapeutic mode on day 34 and continued through day 49. Different treatments were compared by measuring the decrease in incidence (i.e., resolution of disease) and the decrease in severity of paw swelling over time.

The next data set relates to LPS-induced serum TNFα. In words: LPS-induced serum TNFα suppression, 28-day repeat dose mouse model. Type of data set: in vivo. The following applies: 672 h, mice, oral gavage 28 days.
A further data set relates to Serum osteocalcin. In words: Serum osteocalcin suppression, 28-day repeat dose mouse model. The class given is in vivo, mice. To be noted: for ED50: Mus musculus, 672 h, mice, oral gavage 28 days, serum osteocalcin.
The next data set deals with TNFα, U937 cells. In words: TNFα inhibition in LPS-stimulated differentiated U937 cells. The class given is cell-based. To be noted: Homo sapiens. As to the method:
Cells were differentiated to a monocyte/macrophage phenotype with phorbol 12-myristate 13-acetate (Sigma-Aldrich, St. Louis, Mo.), 20 ng/mL, overnight. […] Following recovery, the cells were scraped, counted, and plated in accordance to the experimental design prior to stimulation with LPS, as described below. U937 cells were differentiated and plated at a density of 200,000 cells/well in 96-well plates. […] Louis, Mo.) for four hours at 37° C. and with 5% CO2. Cell supernatants were collected for determination of TNFα levels using an in-house sandwich-type ELISA. Mouse anti-human TNFα monoclonal antibody (clone 28401.111) and biotinylated goat anti-human TNFα (R&D Systems, Minneapolis, Minn.) were used as the capture and detection antibodies, respectively. Streptavidin-horseradish peroxidase (HRP) (R&D Systems, Minneapolis, Minn.) and K-Blue Substrate/Red Stop (Neogen, Lexington, Ky.) were used as the detection system. Absorbance was measured at 650 nm. TNFα concentrations were interpolated from a human TNFα recombinant protein (R&D Systems, Minneapolis, Minn.) standard curve using a four parameter logistics model by Magellan 4.11 data analysis software (Tecan, Durham, N.C.). […] Vehicle was used to define the 0% inhibition control. Percent inhibition for each concentration of compound, relative to these controls, was calculated using Excel (Microsoft, Redmond, Wash.).

Data set [3] has as its system Cortical bone formation rate. Description: Cortical bone histomorphometry, bone formation rate (BFR). Type of data set: in vivo, mice. The following applies: 28-day repeat dose model; the 11th table. The method, then: Sigma-Aldrich, St. […] Calcein incorporates into the bone mineral and allows measurement of bone formation rate. Calcein was dissolved in 2% sodium bicarbonate. During the tissue harvest, the left tibiae were excised and cleaned for cortical histomorphometry measurements. After all skin and muscle were removed, tibiae were placed in 70% ethanol (4° C.) in the dark for a minimum of 24 hours. Ground transverse sections were used for histomorphometric analysis of cortical bone. Bones were sectioned using a low-speed saw (lsomet, Buehler, Lake Bluff, Ill.) equipped with a diamond wafer blade. The end of each tibia was removed proximal to tibia-fibula synostosis and a […] cross-section was cut. Using a roughened glass plate and a cork, sections were ground to […] until transparent and all labels were distinguishable under a fluorescent microscope. […] Sigma-Aldrich, St. Louis, Mo.). Sections were mounted using Eukitt Quick Mounting Medium (#03989, Sigma-Aldrich, St. Louis, Mo.) after which coverslip was applied. […] Bone formation rate was calculated by the following equation: (Inter-label width/Label interval)*(Labeled perimeter/Bone perimeter). At least five samples were measured from each treatment group in each study.

A short description of data set [4]: Plasma exposure (AUC) in the mouse. The class given is in vivo.
[5] abbreviates: A549, 20 h, A549 cells, 1 ng/mL IL-1β, 20 hours, read-out: IL-6 IC50.

Take `Cc1cnc(NC(=O)c2ccc3c(c2)CC[C@@H]2C[C@@](O)(C(F)(F)F)CC[C@@]32Cc2ccccc2)c(C)n1` [Comparator B, (4βS,7R,8αR)-4β-benzyl-N-(3,5-dimethylpyrazin-2-yl)-7-hydroxy-7-(trifluoromethyl)-4β,5,6,7,8,8α,9,10-octahydrophenanthrene-2-carboxamide]: the IC50 in data set [1] (setting [5]) was determined as 4 nM. Further, in data set [1], the inhibition came to 75.8%. Further, the ED50 in data set [2] came to 2.9 mg/kg; in the data set on LPS-induced serum TNFα it was 1.64 mg/kg; in the data set on Serum osteocalcin, 2.39 mg/kg.

For `Cc1ncccc1NC(=O)c1ccc2c(c1)C=C[C@@H]1C[C@@](O)(C(F)(F)F)CC[C@@]21Cc1ccccc1` [Comparator I], the IC50 in data set [1] (setting [5]) was 2.8 nM. Also, the inhibition in data set [1] came out at 67.5%. Further, the results for the ED50 (in data set [2]; in the data set with LPS-induced serum TNFα; in the data set on Serum osteocalcin) were 17 mg/kg, 0.73 mg/kg and 5.2 mg/kg, respectively.

In the case of `Cc1ncc(NC(=O)c2ccc3c(c2)CC[C@@H]2C[C@@](O)(CCC(F)(F)F)CC[C@@]32Cc2ccccc2)c(C)n1` [Comparator J, (4βS,7S,8αR)-4β-benzyl-N-(2,4-dimethylpyrimidin-5-yl)-7-hydroxy-7-(3,3,3-trifluoropropyl)-4β,5,6,7,8,8α,9,10-octahydrophenanthrene-2-carboxamide], the IC50 in data set [1] (setting [5]) came out at 291 nM. Moreover, the inhibition in data set [1] amounted to 55%. For the same compound, the ED50 in data set [2] was 3 mg/kg; in the data set on LPS-induced serum TNFα, 0.09 mg/kg; in the data set with Serum osteocalcin it was 0.73 mg/kg.

In the case of `C[C@]12C=CC(=O)C=C1CC[C@@H]1[C@@H]2[C@@H](O)C[C@@]2(C)[C@H]1CC[C@]2(O)C(=O)CO` [Prednisolone], the IC50 in data set [1] (setting [5]) turned out to be 4.2 nM; in data set [1] (A549, value in brackets, footnote a: additional results that were found, read-out: IL-6 IC50 (nM), additional result), 4.6 nM; in the data set on TNFα, U937 cells (U-937, 4 h, U937 cells, 100 ng/mL LPS, four hours, read-out: TNFα IC50), 14.9 nM; in the data set on TNFα, U937 cells (U-937, value in brackets, footnote a: additional results that were found, read-out: TNFα IC50 (nM), additional result), 15.6 nM. In addition, the inhibition in data set [1] is 102%. Besides, the figures for the ED50 (in data set [2]; in the data set on LPS-induced serum TNFα; in the data set on Serum osteocalcin) were 1.1 mg/kg, 0.9 mg/kg and 1 mg/kg, respectively. The Serum osteocalcin (OC) EAUC50 in the data set with Serum osteocalcin (28-day repeat dose model, the 11th table) worked out at 560 ng·h/mL. Also, in data set [3], the Cortical bone formation rate (BFR) EAUC50 stood at 100 ng·h/mL. In addition, the “AUC(0-4 hr) as share of the AUC(0-24 hr) values” in data set [4] is recorded as “more than 95%”.

On to `Cc1ncccc1NC(=O)c1ccc2c(c1)CC[C@@H]1C[C@@](O)(C(F)(F)F)CC[C@@]21Cc1ccccc1` [Example 1, (4βS,7R,8αR)-4β-benzyl-7-hydroxy-N-(2-methylpyridin-3-yl)-7-(trifluoromethyl)-4β,5,6,7,8,8α,9,10-octahydrophenanthrene-2-carboxamide], for which the “AUC(0-4 hr) as share of the AUC(0-24 hr) values” in data set [4] was “more than 95%”.

`Cc1ncccc1NC(=O)c1ccc2c(c1)CC[C@@H]1C[C@@](O)(CCC(F)(F)F)CC[C@@]21Cc1ccccc1` [Comparator C, (4βS,7R,8αR)-4β-benzyl-7-hydroxy-N-(2-methylpyridin-3-yl)-7-(3,3,3-trifluoropropyl)-4β,5,6,7,8,8α,9,10-octahydrophenanthrene-2-carboxamide]: in data set [1] (setting [5]), the IC50 came to 1.1 nM. Moreover, the inhibition in data set [1] came to 82.6%. The ED50 in data set [2] was determined as 2 mg/kg; in the data set on LPS-induced serum TNFα it was 0.27 mg/kg; with Serum osteocalcin it was 1.01 mg/kg.

As to `Cc1ncccc1NC(=O)c1ccc2c(c1)[C@H](O)C[C@@H]1C[C@@](O)(C(F)(F)F)CC[C@@]21Cc1ccccc1` [Comparator F, (4βS,7R,8αR,10R)-4β-benzyl-7,10-dihydroxy-N-(2-methylpyridin-3-yl)-7-(trifluoromethyl)-4β,5,6,7,8,8α,9,10-octahydrophenanthrene-2-carboxamide], the IC50 in data set [1] (setting [5]) stood at 7 nM. Further, the inhibition in data set [1] was determined as 83.3%. Further, the ED50 was > 10 mg/kg in data set [2], 2.11 mg/kg in the data set on LPS-induced serum TNFα and 1.19 mg/kg in the data set on Serum osteocalcin.

With `Cc1ncccc1NC(=O)c1ccc2c(c1)C(=O)C[C@@H]1C[C@@](O)(C(F)(F)F)CC[C@@]21Cc1ccccc1` [Comparator E, (4β,7R,8αS)-4β-benzyl-7-hydroxy-N-(2-methylpyridin-3-yl)-10-oxo-7-(trifluoromethyl)-4β,5,6,7,8,8α,9,10-octahydrophenanthrene-2-carboxamide], the IC50 in data set [1] (setting [5]) was found to be 1.1 nM. Besides, in data set [1], the inhibition is 79.7%. Further, the ED50 in data set [2] stood at 0.5 mg/kg; with LPS-induced serum TNFα, 0.14 mg/kg; with Serum osteocalcin, 0.17 mg/kg.
